The results in this text go back to patent US20200223826A1, “Glucose-6-Phosphate Dehydrogenase (G6PD)-Modulating Agents And Methods Of Treating G6PD Deficiency” (The Board of Trustees of the Leland Stanford Junior …, priority 2017, published 2020).

Some results are limits rather than exact numbers.

In data set [1] the target is aldehyde dehydrogenase 2 (ALDH2) (Homo sapiens, UniProt P05091). Nature of the data set: Selectivity: dimerization or activity of other NAD/NADP+-dependent enzymes. The format is biochemical.
aldehyde dehydrogenase 2 (ALDH2), sequence (P05091 18-517, species assumed): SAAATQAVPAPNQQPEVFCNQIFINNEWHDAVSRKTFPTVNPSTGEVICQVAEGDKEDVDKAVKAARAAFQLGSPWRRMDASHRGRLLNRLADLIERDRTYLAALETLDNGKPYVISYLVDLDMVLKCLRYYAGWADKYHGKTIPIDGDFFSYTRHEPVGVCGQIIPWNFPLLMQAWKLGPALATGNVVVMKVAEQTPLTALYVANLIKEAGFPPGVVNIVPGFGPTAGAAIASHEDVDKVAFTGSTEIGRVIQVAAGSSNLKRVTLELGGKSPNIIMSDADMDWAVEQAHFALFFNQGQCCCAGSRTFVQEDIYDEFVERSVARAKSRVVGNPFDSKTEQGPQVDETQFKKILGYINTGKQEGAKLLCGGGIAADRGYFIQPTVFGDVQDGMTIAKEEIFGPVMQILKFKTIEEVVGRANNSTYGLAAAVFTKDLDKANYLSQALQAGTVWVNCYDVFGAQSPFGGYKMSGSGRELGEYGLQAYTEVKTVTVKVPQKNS
The target of data set [2] is T1, Mediterranean (S188F) G6PD (Homo sapiens, UniProt P11413, S188F).
T1 construct: His (pET-28a) (N, cleaved yes); made in house; host or cells: E. coli C43 (DE3)
T1 sequence (P11413 whole entry S188F): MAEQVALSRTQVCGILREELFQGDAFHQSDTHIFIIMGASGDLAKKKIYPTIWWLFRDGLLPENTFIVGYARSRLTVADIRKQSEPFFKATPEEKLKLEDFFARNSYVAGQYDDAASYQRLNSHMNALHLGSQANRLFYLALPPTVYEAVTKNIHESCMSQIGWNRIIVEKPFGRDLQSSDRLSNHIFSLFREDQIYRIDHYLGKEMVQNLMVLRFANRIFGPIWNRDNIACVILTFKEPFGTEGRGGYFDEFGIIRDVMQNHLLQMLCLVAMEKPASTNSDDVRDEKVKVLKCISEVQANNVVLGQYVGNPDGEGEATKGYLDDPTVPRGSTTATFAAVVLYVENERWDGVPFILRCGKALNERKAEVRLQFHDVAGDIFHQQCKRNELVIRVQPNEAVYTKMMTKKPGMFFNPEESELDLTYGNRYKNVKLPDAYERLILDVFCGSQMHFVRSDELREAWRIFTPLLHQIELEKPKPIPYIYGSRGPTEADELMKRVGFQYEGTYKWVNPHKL
Nature of the data set: G6PD variant enzyme activity. The format is biochemical. As to the method:
(§1) Enzyme activity was measured by monitoring NADPH production, which was coupled with diaphorase converting resazurin to fluorescent resorufin (excitation at 565 nm and emission at 590 nm); fluorescent signal was thus proportional to G6PD activity. Assays were performed at 25° C. and run for 5 minutes in buffer containing 50 mM Tris (pH 7.4), 0.5 mM EDTA, 3.3 mM MgCl2, 1 U/ml diaphorase, 0.1 mM resazurin. 10 ng of recombinant enzymes or 10 μg of cell lysates was used for the assay with 10 μM NADP^+ (Sigma) as cofactor and 100 μM G6P (Sigma) as substrate. Steady-state kinetic parameters were obtained by varying concentrations of NADP^+ (0-10 μM) with a constant concentration of G6P (100 μM) and similarly for G6P (0-100 μM) with a constant concentration of NADP^+ (10 μM) with 10 ng of recombinant enzymes. Data analysis was performed using GraphPad Prism software v.6 (GraphPad Software, La Jolla, Calif. USA). Kinetic parameters were obtained by fitting the data to the Michaelis-Menten equation.

Data set [3] addresses T2, D181A G6PD (Homo sapiens, UniProt P11413, D181A).
T2 construct: His (pET-28a) (N, cleaved yes); made in house; host or cells: E. coli C43 (DE3)
Nature of the data set: Canton-mimicking mutant: activity and proteolytic stability. The format is biochemical. As to the method:
as §1
(§2) 200 ng of recombinant enzymes were incubated with 1 μL of 10 ng/μL chymotrypsin for 1 hour at room temperature. 100 μM of the compound was added to some reaction conditions. The following protein level was examined by Western blot.

Data set [4] has as its target T3, N185A G6PD (Homo sapiens, UniProt P11413, N185A).
T3 construct: His (pET-28a) (N, cleaved yes); made in house; host or cells: E. coli C43 (DE3)
The description is as above. It is filed as biochemical. As to the method:
as §1, §2

Data set [5] relates to lymphocytes carrying the Canton variant. Nature of the data set: Glutathione (GSH) measurement in lymphocytes. The format is cell-based, human. The conditions noted are these: treatment with AG1 for 24 hours. As to the method: Total glutathione level was measured using a Total Glutathione Quantification Kit (Dojindo), according to the manufacturer's instructions. The assay utilized DTNB (5,5′-dithio-bis-(2-nitrobenzoic acid)) that reacts with glutathione to produce 5-mercapto-2-nitrobenzoic acid, a yellow colored product. Cells were subjected to serum starvation (50-75%) for 48 hours to induce oxidative stress and treated with the compound for 24 hours before measurement. The absorbance was read at 412 nm.

The subject of data set [6] is zebrafish embryos. Nature of the data set: Zebrafish embryo development. It is filed as in vivo. The following applies: treated at 24 hpf, scored at 32 or 48 hpf. As to the method:
Adult zebrafish (AB strain; 3-18 months old) were raised and embryos were obtained through natural mating and staged according to standard protocols. Adult tbx16b104/+ were obtained. All animal procedures were performed according to NIH guidelines. Embryos were raised in E3 medium at 28.5° C.
Embryos were dechorinated with pronase at 24 hours post fertilization (hpf) and treated with 50 μg/ml of chloroquine and/or AG1 by directly adding the compounds to the well. For ROS measurements, embryos were incubated with compounds for 2 hours, and then the ROS detecting reagent (CM-H2DCFDA) was added at a final concentration of 500 ng/ml to the well for a total treatment time of 5 hours. One embryo was placed to each well of a black, opaque 96-well plate. The florescence was analyzed with excitation/emission at 485/525 nm. After ROS assays, embryos at about 32 hpf were pooled and lysed in buffer containing 50 mM Tris (pH 7.4), 150 mM NaCl, 1 mM EDTA, 0.1% NP-40, and protease inhibitor cocktail, which was followed by three cycles of freeze and thawing in liquid nitrogen. The lysate was centrifuged at 14,000 rpm at 4° C. for 15 minutes. Total protein concentration in the supernatants (total lysate) was determined by Bradford method. […] 50 μg of the lysate was used to measure NADPH levels using a NADPH quantification kit (Biovision), according to the manufacturer's instructions. […]

Data set [7] relates to zebrafish embryos. Nature of the data set: NADPH levels in lysates of pooled zebrafish embryos. It is filed as in vivo. The conditions noted are these: lysates of pooled AG1-treated embryos. As to the method:
Embryos were dechorinated with pronase at 24 hours post fertilization (hpf) and treated with 50 μg/ml of chloroquine and/or AG1 by directly adding the compounds to the well. For ROS measurements, embryos were incubated with compounds for 2 hours, and then the ROS detecting reagent (CM-H2DCFDA) was added at a final concentration of 500 ng/ml to the well for a total treatment time of 5 hours. One embryo was placed to each well of a black, opaque 96-well plate. The florescence was analyzed with excitation/emission at 485/525 nm. After ROS assays, embryos at about 32 hpf were pooled and lysed in buffer containing 50 mM Tris (pH 7.4), 150 mM NaCl, 1 mM EDTA, 0.1% NP-40, and protease inhibitor cocktail, which was followed by three cycles of freeze and thawing in liquid nitrogen. The lysate was centrifuged at 14,000 rpm at 4° C. for 15 minutes. Total protein concentration in the supernatants (total lysate) was determined by Bradford method. 50 μg of total lysate was loaded onto 10% SDS-PAGE gels and the protein level was examined by Western blot using anti-G6PD antibody (Abcam (G6PD: AB87230)). 10 μg of total lysate was used for enzymatic assay. 50 μg of the lysate was used to measure NADPH levels using a NADPH quantification kit (Biovision), according to the manufacturer's instructions.

T3 sequence (P11413 whole entry N185A): as the sequence (P11413 whole entry S188F) above, with N185A, F188S counted along it
T2 sequence (P11413 whole entry D181A): as the sequence (P11413 whole entry S188F) above, with D181A, F188S counted along it

Regarding `SCCNCCc1c[nH]c2ccccc12` [AG1, 2-[2-(1H-indol-3-yl)ethylamino]ethanethiol], the “effect on dimerization or activity” value in data set [1] is “no effect”. Besides, the activation of variant entry in data set [2] is recorded as “up to 2 fold”. Also, the “activity and proteolytic stability” value in data set [3] is “increased activity and proteolytic stability”; in data set [4], “increased activity and proteolytic stability”. In data set [5], the “level of GSH” value is given as “slightly increased”. In addition, the “concentrations at which embryos developed normally” value in data set [6] is less than 10 µM. Further, the NADPH levels result in data set [7] is given as “significant increase”.
